Reference: paper PMC8132073 (Journal of Applied Glycoscience, 2020)

Tests used:
[1] = molecular target: T1, BsRhaA (Bacillus sp. GL1, UniProt Q93RE8); test: p-nitrophenol release, absorbance […] nm; format: biochemical; conditions: […] sodium phosphate pH […] °C
T1 sequence (Q93RE8 1-886): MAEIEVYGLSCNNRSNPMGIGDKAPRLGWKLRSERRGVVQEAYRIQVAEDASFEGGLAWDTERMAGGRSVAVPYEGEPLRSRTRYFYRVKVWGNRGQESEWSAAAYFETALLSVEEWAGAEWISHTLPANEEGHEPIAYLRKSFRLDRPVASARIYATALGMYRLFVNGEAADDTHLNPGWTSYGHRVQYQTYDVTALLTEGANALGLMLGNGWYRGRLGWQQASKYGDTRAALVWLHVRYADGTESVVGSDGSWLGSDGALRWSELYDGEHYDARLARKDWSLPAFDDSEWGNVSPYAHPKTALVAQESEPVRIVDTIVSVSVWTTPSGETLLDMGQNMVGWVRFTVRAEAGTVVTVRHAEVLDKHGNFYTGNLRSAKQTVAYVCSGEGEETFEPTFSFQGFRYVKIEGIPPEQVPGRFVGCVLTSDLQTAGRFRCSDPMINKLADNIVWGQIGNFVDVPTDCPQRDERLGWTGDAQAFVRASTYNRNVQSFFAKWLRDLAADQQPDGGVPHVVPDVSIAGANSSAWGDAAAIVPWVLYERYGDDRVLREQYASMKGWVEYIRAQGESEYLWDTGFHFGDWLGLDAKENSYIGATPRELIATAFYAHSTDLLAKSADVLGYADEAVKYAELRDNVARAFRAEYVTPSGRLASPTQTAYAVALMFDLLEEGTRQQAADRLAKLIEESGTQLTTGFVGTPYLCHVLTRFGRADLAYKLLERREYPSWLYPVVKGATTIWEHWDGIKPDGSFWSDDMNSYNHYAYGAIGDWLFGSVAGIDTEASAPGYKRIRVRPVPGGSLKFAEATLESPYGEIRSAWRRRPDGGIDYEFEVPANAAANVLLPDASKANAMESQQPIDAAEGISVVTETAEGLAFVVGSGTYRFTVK

[2] = molecular target: T2, KoRha (Klebsiella oxytoca, UniProt A0A0J9X262); test: p-nitrophenol release, absorbance […] nm; format: biochemical; conditions: 100 mM sodium phosphate pH 7.0, 30 °C
T2 sequence (A0A0J9X262 1-523): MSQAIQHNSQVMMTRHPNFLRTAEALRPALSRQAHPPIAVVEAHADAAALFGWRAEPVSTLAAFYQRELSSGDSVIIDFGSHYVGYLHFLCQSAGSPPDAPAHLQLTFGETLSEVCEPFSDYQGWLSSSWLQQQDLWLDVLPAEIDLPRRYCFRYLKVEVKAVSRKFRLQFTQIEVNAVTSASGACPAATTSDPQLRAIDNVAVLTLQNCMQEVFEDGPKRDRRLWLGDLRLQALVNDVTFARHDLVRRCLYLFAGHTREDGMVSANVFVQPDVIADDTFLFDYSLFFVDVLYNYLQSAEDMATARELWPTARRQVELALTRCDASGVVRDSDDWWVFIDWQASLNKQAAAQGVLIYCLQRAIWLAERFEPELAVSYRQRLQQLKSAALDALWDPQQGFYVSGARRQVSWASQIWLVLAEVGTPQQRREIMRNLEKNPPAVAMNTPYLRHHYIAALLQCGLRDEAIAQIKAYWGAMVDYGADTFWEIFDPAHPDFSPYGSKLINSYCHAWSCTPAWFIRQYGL

C[C@@H]1O[C@@H](Oc2ccc([N+](=O)[O-])cc2)[C@H](O)[C@H](O)[C@H]1O [pNP-α-L-Rha, 4-nitrophenyl-α-L-rhamnopyranoside]
p-nitrophenol release, absorbance 405 nm [1]: All four α-L-Rha-ases exhibited α-L-rhamnosyl-hydrolyzing and weak α-L-mannosyl-hydrolyzing activity
p-nitrophenol release, absorbance 405 nm [2]: All four α-L-Rha-ases exhibited α-L-rhamnosyl-hydrolyzing and weak α-L-mannosyl-hydrolyzing activity
